Reference: patent publication US8815875B2 (Merck Sharp & Dohme Corp., priority 2008, dated 2014)

What follows are molecules tested against FABP4 (Homo sapiens, UniProt P15090) (assay: TdF (Temperature Dependence Fluorescence) assay, thermal shift, FABP4).
Assay type: binding
Outline: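 Binding measured as ΔTm versus protein alone; binding constants derived by nonlinear fitting with ΔHL set to −7 kcal/mol and ΔCpL to zero.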

Sequence of FABP4 (P15090 whole entry, species assumed): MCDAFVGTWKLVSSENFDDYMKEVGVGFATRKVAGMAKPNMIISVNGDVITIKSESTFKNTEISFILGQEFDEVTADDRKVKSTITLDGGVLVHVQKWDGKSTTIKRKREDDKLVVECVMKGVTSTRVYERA

| FABP4 TdF Kd | Kd [nM] | SMILES |
| --- | --- | --- |
| B (0.5 ≦ B < 0.001 μM) | – | O=C(NCc1ccccc1)C1(OCc2cc(=O)n3nc(-c4ccccc4)nc3[nH]2)CCCCC1 [48-52] |
| – | > 500 | CNC(=O)C1(OCc2cc(=O)n3nc(-c4ccccc4)nc3[nH]2)CCCCC1 [48-23] |
| B (0.5 ≦ B < 0.001 μM) | – | O=C(NCc1ccccc1C(F)(F)F)C1(OCc2cc(=O)n3nc(-c4ccccc4)nc3[nH]2)CCCCC1 [48-49] |
| B (0.5 ≦ B < 0.001 μM) | – | O=c1cc(COc2cc(Cl)cc(Cl)c2Cl)[nH]c2nc(-c3ccccc3)nn12 [1-87] |
| B (0.5 ≦ B < 0.001 μM) | – | Cc1c(Cl)cccc1OCc1[nH]c2nc(-c3ccccc3)nn2c(=O)c1Cl [3-1] |
| – | > 500 | Cc1ccc(Br)c2ccn(Cc3cc(=O)n4nc(-c5ccccc5)nc4[nH]3)c12 [1-38] |
| B (0.5 ≦ B < 0.001 μM) | – | O=C(NC1CCCCC1)C1(OCc2cc(=O)n3nc(-c4ccccc4)nc3[nH]2)CCCCC1 [48-40] |
| – | ≤ 1 | CC1(CNC(=O)c2c(Cl)cccc2OCc2cc(=O)n3nc(-c4ccccc4)nc3[nH]2)COC1 [47-28, 2-chloro-N-((3-methyloxetan-3-yl)methyl)-6-((7-oxo-2-phenyl-4,7-dihydro-[1,2,4]triazolo[1,5-a]pyrimidin-5-yl)methoxy)benzamide] |
| – | > 500 | CN(C)c1cccc(OCc2cc(=O)n3nc(-c4ccccc4)nc3[nH]2)c1 [1-28] |
| – | > 500 | CCc1ccc(OCc2cc(=O)n3nc(C(=O)O)nc3[nH]2)cc1 [9-1] |
| B (0.5 ≦ B < 0.001 μM) | – | Cn1nccc1NC(=O)c1ccccc1OCc1cc(=O)n2nc(-c3ccccc3)nc2[nH]1 [47-54] |
| – | > 500 | Cc1c(Cl)cccc1NC(=O)c1cc(=O)n2nc(-c3ccccc3)nc2[nH]1 [11-3] |
| – | > 500 | Cc1c(Cl)cccc1OCc1cc(=O)n2nc(-c3ccccc3F)nc2[nH]1 [25-8] |
| – | > 500 | CN1CCc2c(cccc2OCc2cc(=O)n3nc(-c4ccccc4)nc3[nH]2)C1 [1-98] |
| – | ≤ 1 | O=C(NCC1(c2cccc(Cl)c2)CCC1)c1c(Cl)cccc1OCc1cc(=O)n2nc(-c3ccccc3)nc2[nH]1 [47-37, 2-chloro-N-((1-(3-chlorophenyl)cyclobutyl)methyl)-6-((7-oxo-2-phenyl-4,7-dihydro-[1,2,4]triazolo[1,5-a]pyrimidin-5-yl)methoxy)benzamide] |
| – | > 500 | Cc1ccoc1-c1nc2[nH]c(COc3cccc(Cl)c3C)cc(=O)n2n1 [1-115] |
| – | > 500 | O=c1cc(COc2ccccn2)[nH]c2nc(-c3ccccc3)nn12 [1-47] |
| B (0.5 ≦ B < 0.001 μM) | – | COCC1(CNC(=O)c2ccccc2OCc2[nH]c3nc(-c4ccccc4)nn3c(=O)c2Cl)CC1 [24-17] |
| – | > 500 | COc1ccc2c(c1)CN(Cc1cc(=O)n3nc(-c4ccccc4)nc3[nH]1)C2=O [1-29] |
| – | > 500 | CCc1ccc(S(=O)(=O)Cc2cc(=O)n3nc(-c4ccccc4)nc3[nH]2)cc1 [12-2] |
| B (0.5 ≦ B < 0.001 μM) | – | O=c1cc(CO[C@H]2C[C@H]3CC[C@@H]2C3)[nH]c2nc(-c3ccccc3)nn12 [1-108] |
| B (0.5 ≦ B < 0.001 μM) | – | O=C(NCC1(CO)CCCC1)c1c(Cl)cccc1OCc1cc(=O)n2nc(-c3ccccc3)nc2[nH]1 [47-20, 2-chloro-N-((1-(hydroxymethyl)cyclopentyl)methyl)-6-((7-oxo-2-phenyl-4,7-dihydro-[1,2,4]triazolo[1,5-a]pyrimidin-5-yl)methoxy)benzamide] |
| B (0.5 ≦ B < 0.001 μM) | – | O=C(N1C[C@@H]2C[C@@H]2[C@H]1CO)C1(OCc2cc(=O)n3nc(-c4ccccc4)nc3[nH]2)CCCCC1 [48-7, 5-((1-((1S,2S,5R)-2-(hydroxymethyl)-3-azabicyclo[3.1.0]hexane-3-carbonyl)cyclohexyloxy)methyl)-2-phenyl-[1,2,4]triazolo[1,5-a]pyrimidin-7(4H)-one] |

| FABP4 TdF Kd | Kd [nM] | SMILES |
| --- | --- | --- |
| B (0.5 ≦ B < 0.001 μM) | – | COc1ccccc1C1(CNC(=O)C2(OCc3cc(=O)n4nc(-c5ccccc5)nc4[nH]3)CCCCC2)CCC1 [48-57] |
| B (0.5 ≦ B < 0.001 μM) | – | O=c1c(Br)c(COc2cccc(Cl)c2C2CC2)[nH]c2nc(-c3ccccc3)nn12 [23-1] |
| – | > 500 | Cn1ncc2cccc(NCc3cc(=O)n4nc(-c5ccccc5)nc4[nH]3)c21 [1-106] |
| – | > 500 | CC(C)(C)OC(=O)N1CCC(OCc2cc(=O)n3nc(-c4ccccc4)nc3[nH]2)(C(=O)NCC2CC2)CC1 [48-21] |
| B (0.5 ≦ B < 0.001 μM) | – | CC(=O)c1c(Cl)cccc1OCc1cc(=O)n2nc(-c3ccccc3)nc2[nH]1 [31-2] |
| – | > 500 | O=c1cc(COc2cccc(Cl)c2CNCCN2CCOCC2)[nH]c2nc(-c3ccccc3)nn12 [33-2] |
| B (0.5 ≦ B < 0.001 μM) | – | CC(C)c1ccccc1OCc1cc(=O)n2nc(-c3ccccc3)nc2[nH]1 [1-66] |
| B (0.5 ≦ B < 0.001 μM) | – | O=c1cc(COc2cccc3c2CCCC3)[nH]c2nc(-c3ccccc3)nn12 [1-10] |
| B (0.5 ≦ B < 0.001 μM) | – | COCC1(CNC(=O)c2ccccc2OCc2cc(=O)n3nc(-c4ccccc4)nc3[nH]2)CC1 [47-64] |
| B (0.5 ≦ B < 0.001 μM) | – | COc1cc(OC)cc(OCc2cc(=O)n3nc(-c4ccccc4)nc3[nH]2)c1 [1-32] |
| B (0.5 ≦ B < 0.001 μM) | – | CN(CCc1cccc(Cl)c1)C(=O)C1(OCc2cc(=O)n3nc(-c4ccccc4)nc3[nH]2)CCCCC1 [48-29] |
| – | > 500 | Cc1c(Cl)cccc1OCc1cc(=O)n2nc(-c3cncnc3)nc2[nH]1 [25-6] |
| B (0.5 ≦ B < 0.001 μM) | – | O=c1c(Cl)c(COc2csc(C(F)(F)F)c2)[nH]c2nc(-c3ccccc3)nn12 [24-3] |
| – | > 500 | CCc1ccc(NCc2cc(=O)n3ncnc3[nH]2)cc1 [4-3] |
| B (0.5 ≦ B < 0.001 μM) | – | O=C(NC1CCCCC1)c1ccccc1OCc1[nH]c2nc(-c3ccccc3)nn2c(=O)c1Cl [24-13] |
| B (0.5 ≦ B < 0.001 μM) | – | CN(Cc1cc(=O)n2nc(-c3ccccc3)nc2[nH]1)c1cccc(Br)c1 [1-16] |
| B (0.5 ≦ B < 0.001 μM) | – | O=C(NC1(c2ccccc2)CC1)C1(OCc2cc(=O)n3nc(-c4ccccc4)nc3[nH]2)CCCCC1 [48-51] |
| B (0.5 ≦ B < 0.001 μM) | – | O=c1cc(COC2CCc3ccccc32)[nH]c2nc(-c3ccccc3)nn12 (stereo not shown) [1-9] |
| B (0.5 ≦ B < 0.001 μM) | – | COC(=O)C1(NC(=O)C2(OCc3cc(=O)n4nc(-c5ccccc5)nc4[nH]3)CCCCC2)CCCCC1 [48-53] |
| B (0.5 ≦ B < 0.001 μM) | – | Cn1nc(C2CC2)cc1NC(=O)C1(OCc2cc(=O)n3nc(-c4ccccc4)nc3[nH]2)CCCCC1 [48-39] |
| – | > 500 | Cn1nc(C(F)(F)F)cc1OCc1cc(=O)n2nc(-c3ccccc3)nc2[nH]1 [1-22] |
| – | > 500 | CC(C)(C)OC(=O)N1CCC(OCc2cc(=O)n3nc(-c4ccccc4)nc3[nH]2)(C(=O)NCC2CCC2)CC1 [48-22] |
| – | ≤ 1 | O=C(NC1(c2ccccc2Cl)CC1)C1(OCc2cc(=O)n3nc(-c4ccccc4)nc3[nH]2)CCCCC1 [48-8] |

| FABP4 TdF Kd | Kd [nM] | SMILES |
| --- | --- | --- |
| – | > 500 | O=c1cc(CN2CCCC2Cc2ccc(F)cc2)[nH]c2nc(-c3ccccc3)nn12 (stereo not shown) [1-56] |
| – | > 500 | CC(C)(C)c1ccc(OCc2cc(=O)n3nc(-c4ccccc4)nc3[nH]2)c(Cl)c1 [1-71] |
| B (0.5 ≦ B < 0.001 μM) | – | O=C(NC1(CO)CCOCC1)c1c(Cl)cccc1OCc1cc(=O)n2nc(-c3ccccc3)nc2[nH]1 [47-21, 2-chloro-N-(4-(hydroxymethyl)tetrahydro-2H-pyran-4-yl)-6-((7-oxo-2-phenyl-4,7-dihydro-[1,2,4]triazolo[1,5-a]pyrimidin-5-yl)methoxy)benzamide] |
| B (0.5 ≦ B < 0.001 μM) | – | O=C(NCC1(O)CCCCC1)C1(OCc2cc(=O)n3nc(-c4ccccc4)nc3[nH]2)CCCCC1 [48-56] |
| B (0.5 ≦ B < 0.001 μM) | – | CC1(OCc2cc(=O)n3nc(-c4ccccc4)nc3[nH]2)CCCCC1 [1-150] |
| B (0.5 ≦ B < 0.001 μM) | – | Cn1ccc(NC(=O)C2(OCc3cc(=O)n4nc(-c5ccccc5)nc4[nH]3)CCCCC2)n1 [48-33] |
| B (0.5 ≦ B < 0.001 μM) | – | O=C(NCC1(CO)CCC1)c1c(Cl)cccc1OCc1cc(=O)n2nc(-c3ccccc3)nc2[nH]1 [47-30, 2-chloro-N-((1-(hydroxymethyl)cyclobutyl)methyl)-6-((7-oxo-2-phenyl-4,7-dihydro-[1,2,4]triazolo[1,5-a]pyrimidin-5-yl)methoxy)benzamide] |
| B (0.5 ≦ B < 0.001 μM) | – | COC[C@@H]1CCCN1C(=O)c1c(Cl)cccc1OCc1cc(=O)n2nc(-c3ccccc3)nc2[nH]1 [47-9, (S)-5-((3-chloro-2-(2-(methoxymethyl)pyrrolidine-1-carbonyl)phenoxy)methyl)-2-phenyl-[1,2,4]triazolo[1,5-a]pyrimidin-7(4H)-one] |
| – | > 500 | COc1ccc(Cl)cc1NCc1cc(=O)n2nc(C(F)(F)F)nc2[nH]1 [5-6] |
| B (0.5 ≦ B < 0.001 μM) | – | O=C(NCCC1CC1)C1(OCc2cc(=O)n3nc(-c4ccccc4)nc3[nH]2)CCCCC1 [48-26] |
| – | ≤ 1 | O=c1cc(CSc2cccc(Cl)c2C2CC2)[nH]c2nc(-c3ccccc3)nn12 [52-4] |
| – | > 500 | O=c1cc(CN2CC[S+]([O-])CC2)[nH]c2nc(-c3ccccc3)nn12 [1-77] |
| B (0.5 ≦ B < 0.001 μM) | – | O=C(Nc1c(Cl)cccc1OCc1cc(=O)n2nc(-c3ccccc3)nc2[nH]1)C1CC1 [49-3] |
| B (0.5 ≦ B < 0.001 μM) | – | CC1(NC(=O)c2c(Cl)cccc2OCc2cc(=O)n3nc(-c4ccccc4)nc3[nH]2)COC1 [47-47] |
| – | > 500 | NCc1cccc(OCc2cc(=O)n3nc(-c4ccccc4)nc3[nH]2)c1C1CC1 [46-3] |
| B (0.5 ≦ B < 0.001 μM) | – | O=C(NCC1(CO)CCOCC1)C1(OCc2cc(=O)n3nc(-c4ccccc4)nc3[nH]2)CCCCC1 [48-62] |
| – | > 500 | O=c1ccccn1Cc1cc(=O)n2nc(-c3ccccc3)nc2[nH]1 [1-48] |
| B (0.5 ≦ B < 0.001 μM) | – | O=c1c(Cl)c(COCC2(c3cccc(C(F)(F)F)c3)CC2)[nH]c2nc(-c3ccccc3)nn12 [24-7] |
| – | > 500 | CC(C)(C)OCc1cc(=O)n2nc(-c3ccccc3)nc2[nH]1 [1-40] |
| B (0.5 ≦ B < 0.001 μM) | – | O=c1cc(COc2cccc(Cl)c2)[nH]c2nc(-c3ccccc3)nn12 [1-88] |
| – | ≤ 1 | Nc1cc(C2CC2)nn1C(=O)c1c(Cl)cccc1OCc1cc(=O)n2nc(-c3ccccc3)nc2[nH]1 [47-50] |
